Among the data in patent US9815839B2, “N-(1-(substituted-phenyl)ethyl)-9H-purin-6-amines as PI3K inhibitors” (Incyte Corporation, priority 2010, dated 2017) are IC50 values, retold here.

One assay addresses T1, PI3Kδ (p110δ/p85α) (Homo sapiens, UniProt O00329).
T1 construct: purchased Millipore (Bedford, Mass.)
Kind of assay: PI3Kδ scintillation proximity assay. The conditions noted are these: 20 μM ATP, 4 nM PI3Kδ. It is filed as biochemical. An outline of the steps: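 p110δ/p85α (4 nM) phosphorylated 20 μM PIP2 with 20 μM ATP plus [γ-33P]ATP in 20 mM MOPS pH 6.7, 10 mM MgCl2, 5 mM DTT, 0.03% CHAPS, 0.5% DMSO, 210 min at room temperature. EDTA quench, WGA SPA bead capture, scintillation counting; IC50 from log-concentration fit.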
Background: Scintillation proximity formats need no separation of bound from free tracer.

For assay [1], the system named is Pfeiffer cell line (diffuse large B cell lymphoma). Kind of assay: Pfeiffer cell proliferation assay. It is filed as cell-based. The following applies: Homo sapiens, Pfeiffer, Pfeiffer cells, 3-4 days plus 12 hours [3H]-thymidine incorporation. An outline of the steps:
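Pfeiffer DLBCL cells grown in RPMI/10% FBS at 2×10^3 cells/well in ultra-low-binding plates with a range of compound concentrations for 3-4 days. [3H]-thymidine (1 μCi/well) was then added for 12 h more. Incorporation was read by filtration and scintillation counting.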
In general terms: Dividing cells build labelled thymidine or BrdU into new DNA.

What is called IC50 is the midpoint of a concentration-inhibition curve.

Some results are limits rather than exact numbers.

T1 sequence (O00329 whole entry, species assumed): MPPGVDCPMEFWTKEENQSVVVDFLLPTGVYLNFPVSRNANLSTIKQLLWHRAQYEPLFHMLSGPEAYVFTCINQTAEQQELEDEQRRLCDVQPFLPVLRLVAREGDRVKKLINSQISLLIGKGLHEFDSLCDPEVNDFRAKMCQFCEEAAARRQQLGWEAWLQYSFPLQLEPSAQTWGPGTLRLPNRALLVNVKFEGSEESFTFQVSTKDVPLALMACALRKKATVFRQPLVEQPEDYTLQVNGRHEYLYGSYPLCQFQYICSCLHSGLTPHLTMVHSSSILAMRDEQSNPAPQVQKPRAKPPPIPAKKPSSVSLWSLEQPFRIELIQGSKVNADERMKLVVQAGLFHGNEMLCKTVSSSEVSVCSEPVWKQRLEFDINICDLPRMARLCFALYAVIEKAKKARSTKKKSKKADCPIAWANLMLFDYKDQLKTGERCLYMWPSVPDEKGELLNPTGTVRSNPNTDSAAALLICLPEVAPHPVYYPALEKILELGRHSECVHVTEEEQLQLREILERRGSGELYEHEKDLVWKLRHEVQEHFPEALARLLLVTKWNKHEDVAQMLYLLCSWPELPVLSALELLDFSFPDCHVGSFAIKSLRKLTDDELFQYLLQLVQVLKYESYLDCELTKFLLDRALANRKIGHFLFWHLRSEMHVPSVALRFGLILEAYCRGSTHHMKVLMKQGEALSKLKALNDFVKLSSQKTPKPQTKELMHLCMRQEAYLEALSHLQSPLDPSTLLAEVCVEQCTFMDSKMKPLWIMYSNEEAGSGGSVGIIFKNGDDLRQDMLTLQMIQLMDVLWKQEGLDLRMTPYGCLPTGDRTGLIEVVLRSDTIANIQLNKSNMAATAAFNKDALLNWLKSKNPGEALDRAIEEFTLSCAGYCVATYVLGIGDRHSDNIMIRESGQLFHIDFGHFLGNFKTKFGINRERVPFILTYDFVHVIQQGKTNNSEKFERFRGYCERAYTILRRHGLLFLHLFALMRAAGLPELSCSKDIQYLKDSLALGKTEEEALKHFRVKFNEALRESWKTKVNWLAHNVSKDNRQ
T1 sequence (P27986 whole entry partner, species assumed): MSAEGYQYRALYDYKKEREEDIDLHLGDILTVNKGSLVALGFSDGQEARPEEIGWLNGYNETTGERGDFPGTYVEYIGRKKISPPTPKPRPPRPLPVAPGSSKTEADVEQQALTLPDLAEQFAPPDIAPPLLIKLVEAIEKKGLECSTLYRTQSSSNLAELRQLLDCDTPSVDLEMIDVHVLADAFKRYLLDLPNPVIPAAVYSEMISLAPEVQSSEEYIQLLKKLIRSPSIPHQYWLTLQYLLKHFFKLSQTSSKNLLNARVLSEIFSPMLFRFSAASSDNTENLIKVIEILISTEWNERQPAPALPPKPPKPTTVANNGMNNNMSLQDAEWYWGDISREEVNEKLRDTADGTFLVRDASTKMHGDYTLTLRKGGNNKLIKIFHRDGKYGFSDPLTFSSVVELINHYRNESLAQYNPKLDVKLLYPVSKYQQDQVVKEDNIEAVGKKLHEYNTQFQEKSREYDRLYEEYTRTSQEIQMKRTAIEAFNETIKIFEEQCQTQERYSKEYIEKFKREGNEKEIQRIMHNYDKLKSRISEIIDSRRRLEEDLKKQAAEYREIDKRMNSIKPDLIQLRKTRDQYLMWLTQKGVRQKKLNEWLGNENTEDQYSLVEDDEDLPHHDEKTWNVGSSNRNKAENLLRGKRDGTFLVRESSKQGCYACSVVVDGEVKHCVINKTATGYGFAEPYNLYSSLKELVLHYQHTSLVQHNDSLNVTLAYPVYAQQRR

`Cc1noc(C)c1-c1c(C)c(Cl)cc(C(C)Nc2ncnc3[nH]cnc23)c1-c1cc(F)cc(F)c1` (stereo not drawn) [Example 77, N-{1-[4-chloro-6-(3,5-dimethylisoxazol-4-yl)-3′,5′-difluoro-5-methylbiphenyl-2-yl]ethyl}-9H-purin-6-amine]: the IC50 at PI3Kδ (p110δ/p85α) is under 50 nM; in assay [1], under 100 nM.

Consider `Cc1c(Cl)cc(C(C)Nc2ncnc3[nH]cnc23)c(-c2cc(F)cc(F)c2)c1-c1cccnc1` (stereo not drawn) [Example 78, N-[1-(4-chloro-3′,5′-difluoro-5-methyl-6-pyridin-3-ylbiphenyl-2-yl)ethyl]-9H-purin-6-amine], for which the half-maximal inhibitory concentration (IC50) is under 50 nM against PI3Kδ (p110δ/p85α) and under 100 nM in assay [1].

On to `Cc1c(Cl)cc(C(C)Nc2ncnc3[nH]cnc23)c(-c2cc(F)cc(F)c2)c1-c1ccc(C#N)cc1` (stereo not drawn) [Example 79, 5′-chloro-3″,5″-difluoro-6′-methyl-3′-[1-(9H-purin-6-ylamino)ethyl]-1,1′:2′,1″-terphenyl-4-carbonitrile], for which the results for the IC50 (on PI3Kδ (p110δ/p85α); in assay [1]) were 100 to 250 nM and 100 to 500 nM, respectively.

For the compound `Cc1c(Cl)cc(C(C)Nc2ncnc3[nH]cnc23)c(-c2cc(F)cc(F)c2)c1-c1cc(F)nc(F)c1` (stereo not drawn) [Example 80, N-{1-[4-chloro-6-(2,6-difluoropyridin-4-yl)-3′,5′-difluoro-5-methylbiphenyl-2-yl]ethyl}-9H-purin-6-amine], the figures for the IC50 (against PI3Kδ (p110δ/p85α); in assay [1]) were under 50 nM and under 100 nM, respectively.

Regarding `Cc1c(Cl)cc(C(C)Nc2ncnc3[nH]cnc23)c(-c2cc(F)cc(F)c2)c1-c1cncnc1` (stereo not drawn) [Example 81, N-[1-(4-chloro-3′,5′-difluoro-5-methyl-6-pyrimidin-5-ylbiphenyl-2-yl)ethyl]-9H-purin-6-amine], the IC50 is under 50 nM at PI3Kδ (p110δ/p85α) and under 100 nM in assay [1].

With `COc1ncc(-c2c(C)c(Cl)cc(C(C)Nc3ncnc4[nH]cnc34)c2-c2cc(F)cc(F)c2)cn1` (stereo not drawn) [Example 82, N-{1-[4-chloro-3′,5′-difluoro-6-(2-methoxypyrimidin-5-yl)-5-methylbiphenyl-2-yl]ethyl}-9H-purin-6-amine], the IC50 on PI3Kδ (p110δ/p85α) is under 50 nM; in assay [1], under 100 nM.

Take `CC(=O)Nc1ccc(-c2c(C)c(Cl)cc(C(C)Nc3ncnc4[nH]cnc34)c2-c2cc(F)cc(F)c2)cc1` (stereo not drawn) [Example 83, N-{5′-chloro-3″,5″-difluoro-6′-methyl-3′-[1-(9H-purin-6-ylamino)ethyl]-1,1′:2′,1″-terphenyl-4-yl}acetamide]: the half-maximal inhibitory concentration (IC50) was under 50 nM against PI3Kδ (p110δ/p85α) and under 100 nM in assay [1].

On to `COc1c(C(C)Nc2ncnc3[nH]cnc23)cc(Cl)c(C)c1-c1ccnc(F)c1` (stereo not drawn) [Example 84, N-{1-[5-chloro-3-(2-fluoropyridin-4-yl)-2-methoxy-4-methylphenyl]ethyl}-9H-purin-6-amine], for which the IC50 at PI3Kδ (p110δ/p85α) was under 50 nM; in assay [1], under 100 nM.

Consider `COc1c(C(C)Nc2ncnc3[nH]cnc23)cc(Cl)c(C)c1-c1cnc(F)c(C)c1` (stereo not drawn) [Example 87, N-{1-[5-chloro-3-(6-fluoro-5-methylpyridin-3-yl)-2-methoxy-4-methylphenyl]ethyl}-9H-purin-6-amine], for which the figures for the IC50 (at PI3Kδ (p110δ/p85α); in assay [1]) were under 50 nM and under 100 nM, respectively.

With `COc1c(C(C)Nc2ncnc3[nH]cnc23)cc(Cl)c(C)c1-c1ccc(N2CCOCC2)cc1` (stereo not drawn) [Example 88, N-[1-(5-chloro-2-methoxy-6-methyl-4′-morpholin-4-ylbiphenyl-3-yl)ethyl]-9H-purin-6-amine], the IC50 on PI3Kδ (p110δ/p85α) was under 50 nM; in assay [1], under 100 nM.

With `COc1c(C(C)Nc2ncnc3[nH]cnc23)cc(Cl)c(C)c1-c1ccc(F)c(Cl)c1` (stereo not drawn) [Example 89, N-[1-(3′,5-dichloro-4′-fluoro-2-methoxy-6-methylbiphenyl-3-yl)ethyl]-9H-purin-6-amine], the values for the 50% inhibitory concentration (IC50) (on PI3Kδ (p110δ/p85α); in assay [1]) were 50 to 100 nM and 500 to 1000 nM, respectively.

On to `CCOc1cccc(-c2c(C)c(Cl)cc(C(C)Nc3ncnc4[nH]cnc34)c2OC)c1` (stereo not drawn) [Example 91, N-[1-(5-chloro-3′-ethoxy-2-methoxy-6-methylbiphenyl-3-yl)ethyl]-9H-purin-6-amine], for which the half-maximal inhibitory concentration (IC50) at PI3Kδ (p110δ/p85α) was 50 to 100 nM; in assay [1], over 1000 nM.
